As usually defined, the ED50 is the dose that gives a 50% effect, or the effect in half of the subjects.

Assay [1] has as its system aerosol antigen induced bronchial spasms and death. Nature of the assay: prevention of aerosol antigen induced bronchial spasms and death in the guinea pig. The following applies: Cavia porcellus, po, orally, read-out: minimal amount required to prevent aerosol antigen induced bronchial spasms and death. The class given is in vivo. The text has this: The minimal amounts of the compounds of Examples 4,5,6 and 9 required to prevent aerosol antigen induced bronchial spasms and death in the quinea pig are respectively 1.0, 4.0, 1.0 and 4.0 milligrams per kilogram of body weight orally.

Assay [2] concerns wheals induced by intradermal injections of histamine. Nature of the assay: reduction by 50% of wheals induced by intradermal injections of histamine into guinea pigs. The class given is in vivo, guinea pig. The following applies: Cavia porcellus, po, 1 h, orally administered one hour prior to the histamine injection, read-out: ED50 (amount required to reduce by 50% wheals induced by intradermal injections of histamine).

Regarding `Cc1ccc(C(=O)CCCN2CCC(C(O)(c3ccccc3)c3ccccc3)CC2)cc1.Cl` [Example 5, 4-[4-(α-Hydroxy-α-phenylbenzyl)piperidino] -4'-methylbutyrophenone hydrochloride], the minimal effective dose in assay [1] turned out to be 4 mg/kg. Moreover, the ED50 in assay [2] is 1.9 mg/kg.
In the case of `CC(C)(C)c1ccc(C(=O)CCCN2CCC(C(O)(c3ccccc3)c3ccccc3)CC2)cc1.Cl` [Example 6, 4'-tert-Butyl-4-[4-(α-hydroxy-α-phenylbenzyl)piperidino] butyrophenone hydrochloride], the minimal effective dose in assay [1] was 1 mg/kg. Moreover, the ED50 in assay [2] was found to be 1.8 mg/kg.
On the same counts, the results for `O=C(CCCN1CCC(C(O)(c2ccccc2)c2ccccc2)CC1)c1ccc(N2CCCCC2)cc1` [Example 9, 4-[4-(α-Hydroxy-α-phenylbenzyl)piperidino]-4'-piperidinobutyrophenone] are 4 mg/kg and 3.4 mg/kg.
Take `Cl.O=C(CCCN1CCC(C(O)(c2ccccc2)c2ccccc2)CC1)c1cccs1` [Example 4, 4-[4-(α -Hydroxy-α -phenylbenzyl)piperidino] -1-(2-thienyl)-butan-1-one hydrochloride]: in assay [1], the minimal effective dose was found to be 1 mg/kg. For the same compound, the ED50 in assay [2] was 3.1 mg/kg.
